Series [1] is described as follows: Pharmacokinetic assay in SD rats (plasma and brain tissue). Conditions: rat, po, male SD rats, p.o. 5 mg/kg; for AUC(0-t): read-out: Area under curve AUC0-t; for Tmax: read-out: Peak time tmax; for Cmax: read-out: Plasma concentration Cmax. In kind it is in vivo. On the procedure: Test Example 4. Pharmacokinetic Assays in SD Rats
SD rats were used as test animals. The in vivo (plasma and brain tissue) pharmacokinetic behavior of the compounds of the present invention was investigated by oral administration of the compound in rats at a dose of 5 mg/kg.
Male SD rats (21 animals per group), purchased from Shanghai JieSiJie Laboratory Animal Co., Ltd., under the Animal Production License Number of SCXK (Shanghai) 2013-0006 No. 311620400001794.
The experimental drug was dissolved in 0.5% CMC-Na (1% Tween 80) by sonication to formulate a clear solution or a homogeneous suspension.
After an overnight fast, male SD rats (21 animals per group) were administered p.o. with the experimental drug at an administration dose of 5 mg/kg and the administration volume of 10 mL/kg.
Rats were sacrificed with CO2 at 0, 0.5, 1, 2, 4, 8 and 24 hours before and after the drug administration. 8 mL of blood was collected by cardiac puncture, placed in EDTA-K2 tubes, and centrifuged at 4° C. at 6,000 rpm for 6 min. Plasma was separated and stored at −80° C. The whole brain tissue was dissected and weighed, and then placed in a 2 mL centrifuge tube and stored at −80° C.
2.6 Sample Processing: • 1) 160 μL of acetonitrile was added to 40 μL of plasma sample for precipitation. After mixing, the sample was centrifuged at 3500×g for 5-20 minutes. • 2) 90 μL of acetonitrile containing internal standard (100 ng/mL) was added to 30 μL of plasma or brain homogenate sample for precipitation. After mixing, the sample was centrifuged at 13,000 rpm for 8 minutes. • 3) 70 μL of water was added to 70 μL of treated supernatant, and mixed by vortex for 10 minutes. Then 20 μL of the sample was analyzed by LC/MS/MS to determine the concentration of the compound to be tested. The LC/MS/MS instrument for analysis was AB Sciex API 4000 Qtrap.
2.7 Liquid Chromatography Analysis: • Liquid chromatography conditions: Shimadzu LC-20AD pump • Chromatographic column: Agilent ZORBAX XDB-C18 (50×2.1 mm, 3.5 μm) Mobile phase: Eluent A was 0.1% formic acid in water, and Eluent B was acetonitrile. • Flow rate: 0.4 mL/min • Elution time: 0-4.0 minutes, the eluate was as follows:
The major pharmacokinetic parameters were calculated by using WinNonlin 6.1, and the results of the pharmacokinetic experiments in rats were shown in Table 3 below: […]

Series [2] concerns luteinizing hormone (LH) content in plasma. Description: Luteinizing hormone (LH) content in plasma of bilateral ovariectomy (OVX) rats. Conditions: oral 30 mg/kg, plasma LH 0-8 h. It is filed as in vivo. The text has this: Test Example 5. Effect of the Compounds of the Present Invention on Luteindzing Hormone (LH) Content in Plasma of Bilateral Ovariectomy (OVX) Rats
The objective of this test example was to determine the effect of the compounds on luteinizing hormone (LH) in plasma of bilateral ovarnectomy (OVX) rats.
10-Week-old female bilateral ovariectomy SD rats were purchased from Beijing Vital River Laboratory Animal Technology Co., Ltd. The animals were housed in a SPF grade animal facility with 5 SD rats per cage. The cages, bedding, feed and water were disinfected at high temperatures before use. All animals had free access to food and water.
Drug administration by groups: 10-Week-old female SD rats were subjected to bilateral ovariectomy and used in experiments after 3 weeks. Each SD rat was fasted overnight before the experiment, and then randomly divided into groups (3 rats per group) before the drug administration. Different test compounds were administered orally to each drug administration group at a dose of 30 mg/kg and a volume of 10 mL/kg.
Sample collection: 0.2-0.3 mL of whole blood of the SD rats in each group was collected at 0, 0.5, 1, 2, 4, 8 hours before and after the drug administration, and placed in EDTA-K2 tubes. The tubes were inverted and mixed well, and centrifuged at 4° C. at 5,000 rpm for 5 min. Then the plasma was separated and stored in an ultra-low temperature freezer (−80±10° C.).
Sample detection: All reagents, samples and ELISA plates were equilibrated at room temperature (20-25° C.) for at least 30 min. The sample was thawed, vortexed and centrifuged for use. The standard curve was prepared with Assay buffer C according to the concentration sequence of 10, 5, 2.5, 1.25, 0.625, 0.313 and 0. The sample was diluted by two folds with Sample dilution buffer G and left to stand at room temperature for 10 min. […] The OD values of each well was read at a wavelength of 450 nm with a microplate reader.
The standard curve was plotted by using Graphpad, and the concentration of the sample was calculated. […]

Like-named read-outs stand apart in the source and are kept apart here.

The Tmax is the time from dosing to the highest level. A word on the MRT: it is the average time that molecules of a dose stay in the body.

Consider `[2H]c1cc(C(=O)N2CCn3c(-c4nc(Cl)ns4)nnc3[C@H]2C)ccc1F` [Example 56, (R)-(3-(3-Chloro-1,2,4-thiadiazol-5-yl)-8-methyl-5,6-dihydro-[1,2,4]triazolo[4,3-a]pyrazin-7(8H)-yl)(4-fluorophenyl-3-d)methanone], for which, in series [1] (Brain), the AUC(0-t) came to 2710 ng·h/mL, the Tmax was found to be 1 h and the Cmax was 798 ng/mL. Also, in series [1] (Plasma), the AUC(0-t) turned out to be 6150 ng·h/mL, the Tmax was determined as 2 h and the Cmax turned out to be 1170 ng/mL. The half-life in series [1] (Plasma, read-out: Half life t1/2 (converted)) was 3.1 h. For the same compound, the MRT in series [1] (Plasma, read-out: Mean residence time MRT) turned out to be 5.1 h.

As to `C[C@@H]1c2nnc(-c3nc4cnc(Cl)cc4s3)n2CCN1C(=O)c1ccc(F)cc1` [Example 37, (R)-(3-(6-Chlorothiazolo[4,5-c]pyridin-2-yl)-8-methyl-5,6-dihydro-[1,2,4]triazolo[4,3-a]pyrazin-7(8H)-yl)(4-fluorophenyl)methanone], the “ΣAUC(ΔLH/LH · h, Mean ± SD)” value in series [2] is on record as −0.52 ± 2.24 ΔLH/LH · h. In series [1] (Brain), the AUC(0-t) was 4200 ng·h/mL, the Tmax is 4 h and the Cmax came out at 1640 ng/mL. Also, in series [1] (Plasma), the AUC(0-t) turned out to be 77800 ng·h/mL, the Tmax worked out at 8 h and the Cmax was 4000 ng/mL.

Source of the values: patent US20230271969A1, “NITROGEN-CONTAINING FUSED RING DERIVATIVE INHIBITOR, PREPARATION METHOD THEREFOR AND USE THEREOF” (Shanghai Hansoh Biomedical Co., Ltd., priority 2020, published 2023).
